Legend:
[1] = Albumin, creatinine, platelets and INR levels in subjects of the clinical study; type: in vivo, human; conditions: for Albumin, % Change at Day 28 / Albumin, Day 28 / Creatinine, % Change at Day 28 / Creatinine, Day 28 / Platelets, % Change at Day 28 / Platelets, Day 28: median
Protocol: (§1) To evaluate safety, the PK and PD of OCA administered at 10 mg/day or 25 mg/day in subjects with compensated cirrhosis due to NASH was compared to healthy controls in a randomized, double blind, single center, Phase 3 study. Sixteen subjects with cirrhosis due to NASH and 8 healthy, age- and weight-matched, subjects were randomized in a 1:1 ratio to QD OCA 10 mg or OCA 25 mg for 28 days, according to FIG. 1 and Table 1. Extensive serial PK sampling over a 24-hour period was performed on Day 1 and Day 28 of dosing.

[2] = Plasma PK of total OCA (AUC0-24 h), serial sampling on Day 1 and Day 28 of dosing; type: in vivo, human
Protocol: as §1

[3] = Adverse events, safety and tolerability of OCA 10 mg or 25 mg QD for 28 days; type: in vivo, human; conditions: for Total adverse events (AEs): both doses
Protocol: as §1

FXR = biological target: T1, FXR (Homo sapiens, UniProt Q96RI1); assay: PD markers of FXR activation (C4, FGF-19) during 28 days of QD OCA; type: in vivo
T1 construct: FGF-19 released from gut enterocytes (in response to FXR agonist) into portal circulation down regulates endogenous bile acid synthesis in the liver; endogenous in cells; host or cells: human study subjects in vivo (gut enterocytes, liver)
T1 sequence (Q96RI1 1-486): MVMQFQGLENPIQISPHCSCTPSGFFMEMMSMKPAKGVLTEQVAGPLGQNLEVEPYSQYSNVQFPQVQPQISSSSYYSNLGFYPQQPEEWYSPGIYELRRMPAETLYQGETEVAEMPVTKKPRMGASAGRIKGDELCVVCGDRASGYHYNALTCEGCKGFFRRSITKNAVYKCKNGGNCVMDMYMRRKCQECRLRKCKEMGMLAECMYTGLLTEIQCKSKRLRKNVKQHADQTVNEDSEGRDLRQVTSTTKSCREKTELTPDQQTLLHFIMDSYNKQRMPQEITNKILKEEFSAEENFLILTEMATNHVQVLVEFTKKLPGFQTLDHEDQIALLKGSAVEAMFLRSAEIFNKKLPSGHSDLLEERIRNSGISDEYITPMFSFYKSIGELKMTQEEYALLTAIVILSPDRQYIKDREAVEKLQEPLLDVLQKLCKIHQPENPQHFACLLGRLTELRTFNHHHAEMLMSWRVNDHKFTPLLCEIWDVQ
Source text: In one aspect, obeticholic acid may mediate its action primarily via FXR agonism, wherein FGF-19 released from gut enterocytes (in response to FXR agonist) into portal circulation down regulates endogenous bile acid synthesis in the liver. The present disclosure comprehends a method of measuring FXR agonist activity by, for example, measuring release of FGF-19 into the bloodstream or circulation of a patient administered with OCA. Levels of FGF-19 may be measured by methods known in the art, such as those described herein.
In some embodiments, the plasma levels of FGF-19, a marker of FXR activation, are determined using a qualified method and a validated method using an enzyme-linked immunosorbent assay (ELISA) method. The plasma concentrations of FGF-19 may be quantitated at predose and after administration of dose.
In some examples, a monoclonal antibody specific for FGF-19 is pre-coated onto a microplate. Standards, quality controls and samples are pipetted into the wells and any FGF-19 present is bound by the immobilized antibody. After washing away any unbound substances, an enzyme-linked polyclonal antibody specific for FGF-19 is added to the wells. Following a wash to remove any unbound antibody-enzyme reagent, a substrate solution is added to the wells and color develops in the proportion to the amount of FGF-19 bound in the initial step. The color development is stopped and the intensity of the color is measured. The calibration range of the method is 15.625 pg/ml to 1000 pg/ml for FGF-19 using a 100 μl aliquot of standard curve, quality control and sample. In some embodiments, no minimum required dilution is used. In other embodiments, samples may be subjected to a 3× minimum required dilution.
To evaluate safety, the PK and PD of OCA administered at 10 mg/day or 25 mg/day in subjects with compensated cirrhosis due to NASH was compared to healthy controls in a randomized, double blind, single center, Phase 3 study. […]

[4] = Liver biochemistry (ALT, AST, GGT, ALP, bilirubin) during 28 days of QD OCA; type: in vivo, human
Protocol: as §1

[5] = both dose groups, throughout the 28-day study

For `CC[C@H]1[C@@H](O)[C@@H]2[C@H](CC[C@]3(C)[C@@H]([C@H](C)CCC(=O)O)CC[C@@H]23)[C@@]2(C)CC[C@@H](O)C[C@@H]12` [OCA, 3α,7α-dihydroxy-6α-ethyl-5β-cholan-24-oic acid], the Albumin levels ([1]; 28 days) was “No changes”, the INR ([1]; 28 days) was “No changes” and the Platelet levels ([1]; 28 days) was “No changes”. The “Albumin, % Change at Day 28” value ([1]; Healthy, 10 mg OCA (n = 4)) was 2.3%, the “Albumin, Day 28” value ([1]; Healthy, 10 mg OCA (n = 4)) was 4.5 g/dL and the “Creatinine, % Change at Day 28” value ([1]; Healthy, 10 mg OCA (n = 4)) was −1.6%. For the same compound, the “Creatinine, Day 28” value ([1]; Healthy, 10 mg OCA (n = 4)) was 0.96 mg/dL, the “Platelets, % Change at Day 28” value ([1]; Healthy, 10 mg OCA (n = 4)) was 0.4% and the “Platelets, Day 28” value ([1]; Healthy, 10 mg OCA (n = 4)) was 262.0 10^9/L. For the same compound, the “Albumin, % Change at Day 28” value ([1]; Healthy, 25 mg OCA (n = 4)) was −4.0%, the “Albumin, Day 28” value ([1]; Healthy, 25 mg OCA (n = 4)) was 4.0 g/dL and the “Creatinine, % Change at Day 28” value ([1]; Healthy, 25 mg OCA (n = 4)) was 8.3%. The “Creatinine, Day 28” value ([1]; Healthy, 25 mg OCA (n = 4)) was 0.78 mg/dL, the “Platelets, % Change at Day 28” value ([1]; Healthy, 25 mg OCA (n = 4)) was 4.0% and the “Platelets, Day 28” value ([1]; Healthy, 25 mg OCA (n = 4)) was 261.0 10^9/L. For the same compound, the “Albumin, % Change at Day 28” value ([1]; NASH CP-A, 10 mg OCA (n = 8)) was −3.9%, the “Albumin, Day 28” value ([1]; NASH CP-A, 10 mg OCA (n = 8)) was 4.0 g/dL and the “Creatinine, % Change at Day 28” value ([1]; NASH CP-A, 10 mg OCA (n = 8)) was 4.3%. The “Creatinine, Day 28” value ([1]; NASH CP-A, 10 mg OCA (n = 8)) was 0.88 mg/dL, the “Platelets, % Change at Day 28” value ([1]; NASH CP-A, 10 mg OCA (n = 8)) was −9.7% and the “Platelets, Day 28” value ([1]; NASH CP-A, 10 mg OCA (n = 8)) was 101.5 10^9/L. The “Albumin, % Change at Day 28” value ([1]; NASH CP-A, 25 mg OCA (n = 8)) was −6.5%, the “Albumin, Day 28” value ([1]; NASH CP-A, 25 mg OCA (n = 8)) was 4.0 g/dL and the “Creatinine, % Change at Day 28” value ([1]; NASH CP-A, 25 mg OCA (n = 8)) was 0.8%. The “Creatinine, Day 28” value ([1]; NASH CP-A, 25 mg OCA (n = 8)) was 0.87 mg/dL, the “Platelets, % Change at Day 28” value ([1]; NASH CP-A, 25 mg OCA (n = 8)) was −2.0% and the “Platelets, Day 28” value ([1]; NASH CP-A, 25 mg OCA (n = 8)) was 155.5 10^9/L. For the same compound, the “Plasma exposure of total OCA in subjects with cirrhosis due to NASH relative to healthy subjects” value ([2]; daily OCA 10 mg and 25 mg) was “higher”, the “Hepatic exposure of OCA” value ([2]; despite increased systemic exposure, FIGS. 11A and 11B) was “remain nominal” and the “Subjects who discontinued treatment due to elevated bilirubin levels” value ([3]; NASH, OCA 25 mg, advanced disease with portal hypertension and history of hyperbilirubinemia, discontinued on Day 25) was “One”. For the same compound, the “Liver-related adverse events reported” value ([3]; all subjects) was “one”, the Serious adverse events ([3]; all subjects) was “No serious adverse events were observed” and the “Severity of all AEs” value ([3]; all subjects, no trend for liver related AEs) was “mild or moderate”. For the same compound, the “Overall safety and tolerability” value ([3]; daily OCA at 10 mg and 25 mg) was “generally safe and well tolerated”, the “Subjects experiencing adverse events” value ([3]; healthy subjects on 10 mg) was 3 subjects and the “Subjects experiencing adverse events” value ([3]; healthy subjects on 25 mg) was 2 subjects. The “Total adverse events (AEs)” value ([3]; healthy subjects) was 5 AEs, the “Subjects experiencing adverse events” value ([3]; healthy subjects, both doses (of 8)) was 5 subjects and the “Subjects experiencing adverse events” value ([3]; subjects with NASH on 10 mg) was 2 subjects. For the same compound, the “Subjects experiencing adverse events” value ([3]; subjects with NASH on 25 mg) was 4 subjects, the “Total adverse events (AEs)” value ([3]; subjects with NASH) was 13 AEs and the “Subjects experiencing adverse events” value ([3]; subjects with NASH, both doses (of 16)) was “Six”. The “Subjects reporting mild or moderate pruritus” value ([3]; subjects with NASH, no relationship to dose) was “Four”, the “Time for bilirubin levels to return to normal after discontinuation of OCA” value ([3]; the one NASH subject on 25 mg who discontinued) was 1 days and the PD effects (FXR; both doses of OCA) was “favorable PD effects”. For the same compound, the C4 (FXR; both dosing groups) was “suppression”, the FGF-19 (FXR; both dosing groups) was “activation” and the “Bilirubin levels (direct and total)” value ([4]; 10 mg and 25 mg groups, 28 days) was “no apparent trend”. The ALP ([4]; OCA 25 mg group, mostly driven by subjects with elevated ALP at Baseline) was “moderate increase”, the ALT [4, 5] was “improvements” and the AST [4, 5] was “improvements”. The GGT [4, 5] was “improvements”.
